Structures can show the parent of a compound that is named as a salt.
Biological target: T1, recombinant human MCHR1-receptors (Homo sapiens, UniProt Q99705)
T1 construct: expressed in transfected cells
Assay: MCHR filter binding assay (competition binding)
Conditions: membranes from CHO-K1 cells expressing human MCHR1; 0.2 nM [Phe13,[125I]Tyr19]-MCH; read-out: IC50 (nM), in vitro activity (binding assay)
Procedure, shortened: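 Membranes from CHO-K1 cells stably expressing human MCHR1 (2.8 μg) preincubated 15 min with competitor, then 1 h at rt with 0.2 nM [Phe13,[125I]Tyr19]-MCH in HEPES/CaCl2/BSA/phenanthroline/Triton buffer. Bound radioactivity counted after rapid filtration over PVP/BSA-treated GF/B filters.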

T1 sequence (Q99705 whole entry): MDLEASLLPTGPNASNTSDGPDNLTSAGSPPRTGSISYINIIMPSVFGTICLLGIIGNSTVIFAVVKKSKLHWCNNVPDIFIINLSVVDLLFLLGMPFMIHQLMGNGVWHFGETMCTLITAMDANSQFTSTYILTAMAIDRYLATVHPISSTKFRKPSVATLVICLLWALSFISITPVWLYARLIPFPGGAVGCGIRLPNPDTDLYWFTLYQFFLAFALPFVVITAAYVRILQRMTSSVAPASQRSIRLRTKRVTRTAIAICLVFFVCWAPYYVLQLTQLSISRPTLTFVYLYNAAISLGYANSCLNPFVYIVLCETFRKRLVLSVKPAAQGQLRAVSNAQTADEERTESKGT

| Structure (SMILES) | IC50 |
| --- | --- |
| COC(=O)Nc1ccc2c(c1)C[C@H](CN1CC[C@H](n3c(C4CC4)nc4cc(C)ccc43)[C@@H](OC)C1)C2 [Example 71, {(R)-2-[(3S,4S)-4-(2-Cyclopropyl-5-methyl-benzoimidazol-1-yl)-3-methoxy-piperidin-1-ylmethyl]-indan-5-yl}-carbamic acid methyl ester] | < 20 nM |
| CCc1nc2cc(C)ccc2n1C1CCN(C[C@@H]2Cc3ccc(NC(=O)C4CC4)cc3C2)CC1OC (stereo partly drawn) [Example 72, Cyclopropanecarboxylic acid {(R)-2-[4-(2-ethyl-5-methyl-benzoimidazol-1-yl)-3-methoxy-piperidin-1-ylmethyl]-indan-5-yl}-amide] | 20 to 200 nM |
| CO[C@@H]1CN(C[C@@H]2Cc3ccc(NC(=O)C(C)C)cc3C2)CC[C@H]1n1c(C2CC2)nc2cc(C)ccc21 [Example 73, N-{(R)-2-[(3R,4R)-4-(2-Cyclopropyl-5-methyl-benzoimidazol-1-yl)-3-methoxy-piperidin-1-ylmethyl]-indan-5-yl}-isobutyramide] | 20 to 200 nM |
| CCc1nc2cc(C)ccc2n1C1CCN(CC2Cc3ccc(NC(=O)C4CC4)cc3C2)CC1 (stereo not shown) [Example 74, Cyclopropanecarboxylic acid {2-[4-(2-ethyl-5-methyl-benzoimidazol-1-yl)-piperidin-1-ylmethyl]-indan-5-yl}-amide] | 20 to 200 nM |
| COC(=O)Nc1ccc2c(c1)C[C@H](CN1CC[C@@H](n3c(C4CC4)nc4cc(C)ccc43)[C@H](OC)C1)C2 [Example 75, {(R)-2-[(3R,4R)-4-(2-Cyclopropyl-5-methyl-benzoimidazol-1-yl)-3-methoxy-piperidin-1-ylmethyl]-indan-5-yl}-carbamic acid methyl ester] | 20 to 200 nM |
| CCC(=O)Nc1ccc2c(c1)C[C@H](CN1CC[C@@H](n3c(C4CC4)nc4cc(C)ccc43)[C@H](OC)C1)C2 [Example 76, N-{(R)-2-[(3R,4R)-4-(2-Cyclopropyl-5-methyl-benzoimidazol-1-yl)-3-methoxy-piperidin-1-ylmethyl]-indan-5-yl}-propionamide] | 20 to 200 nM |
| COC(=O)Nc1ccc2c(c1)C[C@H](CN1CC[C@@H](n3c(C(C)C)nc4cc(C)ccc43)[C@H](OC)C1)C2 [Example 77, {(R)-2-[(3R,4R)-4-(2-Isopropyl-5-methyl-benzoimidazol-1-yl)-3-methoxy-piperidin-1-ylmethyl]-indan-5-yl}-carbamic acid methyl ester] | 20 to 200 nM |
| Cc1ccc2c(c1)ncn2C1CCN(CC2Cc3ccc(NC(=O)C(C)C)cc3C2)CC1 (stereo not shown) [Example 78, N-{2-[4-(5-Methyl-benzoimidazol-1-yl)-piperidin-1-ylmethyl]-indan-5-yl}-isobutyramide] | 20 to 200 nM |
| CCCC(=O)Nc1ccc2c(c1)C[C@H](CN1CC[C@@H](n3c(C4CC4)nc4cc(C)ccc43)[C@H](OC)C1)C2 [Example 79, N-{(R)-2-[(3R,4R)-4-(2-Cyclopropyl-5-methyl-benzoimidazol-1-yl)-3-methoxy-piperidin-1-ylmethyl]-indan-5-yl}-butyramide] | 20 to 200 nM |
| CO[C@@H]1CN(C[C@@H]2Cc3ccc(NC(=O)C4CC4)cc3C2)CC[C@H]1n1c(C2CC2)nc2cc(C)ccc21 [Example 80, Cyclopropanecarboxylic acid {(R)-2-[(3R,4R)-4-(2-cyclopropyl-5-methyl-benzoimidazol-1-yl)-3-methoxy-piperidin-1-ylmethyl]-indan-5-yl}-amide] | 200 to 5000 nM |
| CO[C@H]1CN(CC2Cc3ccccc3C2)CC[C@@H]1n1c(C)nc2cc(C)ccc21 [Example 81, 1-((3S,4S)-1-Indan-2-ylmethyl-3-methoxy-piperidin-4-yl)-2,5-dimethyl-1H-benzoimidazole] | 200 to 5000 nM |
| CC(=O)c1nc2cc(C)ccc2n1C1CCN(CC2Cc3ccccc3C2)CC1 [Example 82, 1-[1-(1-Indan-2-ylmethyl-piperidin-4-yl)-5-methyl-1H-benzoimidazol-2-yl]-ethanone] | 200 to 5000 nM |
| Cc1ccc2c(c1)nc(C(C)C)n2[C@@H]1CCN(CC2Cc3ccccc3C2)C[C@H]1O [Example 83, (3R,4R)-1-Indan-2-ylmethyl-4-(2-isopropyl-5-methyl-benzoimidazol-1-yl)-piperidin-3-ol] | 200 to 5000 nM |
| CCC(=O)Nc1ccc2c(c1)C[C@H](CN1CC[C@@H](n3c(C(C)C)nc4cc(C)ccc43)[C@H](O)C1)C2 [Example 84, N-{(R)-2-[(3R,4R)-3-Hydroxy-4-(2-isopropyl-5-methyl-benzoimidazol-1-yl)-piperidin-1-ylmethyl]-indan-5-yl}-propionamide] | < 20 nM |
| CO[C@@H]1CN(C[C@H]2Cc3ccc(C#N)cc3C2)CC[C@H]1n1c(C)nc2cc(C)ccc21 [Example 85, (S)-2-[(3R,4R)-4-(2,5-Dimethyl-benzoimidazol-1-yl)-3-methoxy-piperidin-1-ylmethyl]-indan-5-carbonitrile] | < 20 nM |
| Cc1ccc2c(c1)nc(C(C)C)n2[C@@H]1CCN(C[C@@H]2Cc3ccc(NC(=O)C(C)C)cc3C2)C[C@H]1O [Example 86, N-{(R)-2-[(3R,4R)-3-Hydroxy-4-(2-isopropyl-5-methyl-benzoimidazol-1-yl)-piperidin-1-ylmethyl]-indan-5-yl}-isobutyramide] | 20 to 200 nM |

| Structure (SMILES) | IC50 |
| --- | --- |
| CO[C@@H]1CN(C[C@@H]2Cc3ccc(Br)cc3C2)CC[C@H]1n1c(C)nc2cc(C)ccc21 [Example 87, 1-[(3R,4R)-1-((R)-5-Bromo-indan-2-ylmethyl)-3-methoxy-piperidin-4-yl]-2,5-dimethyl-1H-benzoimidazole; dihydrochloride] | 20 to 200 nM |
| Cc1ccc2c(c1)nc(C)n2[C@@H]1CCN(C[C@H]2Cc3ccc(NC(=O)C4CC4)cc3C2)C[C@H]1O [Example 88, Cyclopropanecarboxylic acid {(S)-2-[(3R,4R)-4-(2,5-dimethyl-benzoimidazol-1-yl)-3-hydroxy-piperidin-1-ylmethyl]-indan-5-yl}-amide] | 20 to 200 nM |
| CO[C@@H]1CN(C[C@@H]2Cc3ccc(Br)cc3C2)CC[C@H]1n1c(C(C)C)nc2cc(C)ccc21 [Example 89, 1-[(3R,4R)-1-((R)-5-Bromo-indan-2-ylmethyl)-3-methoxy-piperidin-4-yl]-2-isopropyl-5-methyl-1H-benzoimidazole] | 20 to 200 nM |
| CO[C@H]1CN(C[C@@H]2Cc3ccc(Br)cc3C2)CC[C@@H]1n1c(C(C)C)nc2cc(C)ccc21 [Example 90, 1-[(3S,4S)-1-((R)-5-Bromo-indan-2-ylmethyl)-3-methoxy-piperidin-4-yl]-2-isopropyl-5-methyl-1H-benzoimidazole] | 200 to 5000 nM |
| CO[C@H]1CN(C[C@H]2Cc3ccc(Br)cc3C2)CC[C@@H]1n1c(C)nc2cc(C)ccc21 [Example 91, 1-[(3S,4S)-1-((S)-5-Bromo-indan-2-ylmethyl)-3-methoxy-piperidin-4-yl]-2,5-dimethyl-1H-benzoimidazole; dihydrochloride] | 20 to 200 nM |
| COc1ccc2c(c1)CC(CN1CC[C@H](n3c(C)nc4cc(C)ccc43)[C@@H](OC)C1)C2 (stereo partly drawn) [Example 92, 1-[(3S,4S)-3-Methoxy-1-(5-methoxy-indan-2-ylmethyl)-piperidin-4-yl]-2,5-dimethyl-1H-benzoimidazole; dihydrochloride] | 20 to 200 nM |
| COc1ccc2c(c1)CC(CN1CC[C@H](n3c(C(C)C)nc4cc(C)ccc43)[C@@H](OC)C1)C2 (stereo partly drawn) [Example 93, 2-Isopropyl-1-[(3S,4S)-3-methoxy-1-(5-methoxy-indan-2-ylmethyl)-piperidin-4-yl]-5-methyl-1H-benzoimidazole dihydrochloride] | 20 to 200 nM |
| CO[C@H]1CN(CC2Cc3cc(Cl)c(Cl)cc3C2)CC[C@@H]1n1c(C)nc2cc(C)ccc21 [Example 94, 1-[(3S,4S)-1-(5,6-Dichloro-indan-2-ylmethyl)-3-methoxy-piperidin-4-yl]-2,5-dimethyl-1H-benzoimidazole; dihydrochloride] | 200 to 5000 nM |
| CO[C@H]1CN(CC2Cc3cc(Cl)c(Cl)cc3C2)CC[C@@H]1n1c(C(C)C)nc2cc(C)ccc21 [Example 95, 1-[(3S,4S)-1-(5,6-Dichloro-indan-2-ylmethyl)-3-methoxy-piperidin-4-yl]-2-isopropyl-5-methyl-1H-benzoimidazole; dihydrochloride] | 200 to 5000 nM |
| Cc1ccc2c(c1)nc(C(C)(C)O)n2C1CCN(C[C@@H]2Cc3ccc(Br)cc3C2)CC1 [Example 96, 2-{1-[1-((R)-5-Bromo-indan-2-ylmethyl)-piperidin-4-yl]-5-methyl-1H-benzoimidazol-2-yl}-propan-2-ol] | 20 to 200 nM |
| CO[C@@H]1CN(CC2Cc3cccc(Cl)c3C2)CC[C@H]1n1c(C)nc2cc(C)ccc21 (stereo partly drawn) [Example 97, 1-[(3R,4R)-1-(4-Chloro-indan-2-ylmethyl)-3-methoxy-piperidin-4-yl]-2,5-dimethyl-1H-benzoimidazole] | 20 to 200 nM |
| CO[C@@H]1CN(CC2Cc3ccc(C(C)C)cc3C2)CC[C@H]1n1c(C(C)C)nc2cc(C)ccc21 (stereo partly drawn) [Example 98, 2-Isopropyl-1-[(3R,4R)-1-(5-isopropyl-indan-2-ylmethyl)-3-methoxy-piperidin-4-yl]-5-methyl-1H-benzoimidazole] | 200 to 5000 nM |
| Cc1ccc2c(c1)nc(C(C)(C)O)n2C1CCN(C[C@H]2Cc3ccc(Br)cc3C2)CC1 [Example 99, 2-{1-[1-((S)-5-Bromo-indan-2-ylmethyl)-piperidin-4-yl]-5-methyl-1H-benzoimidazol-2-yl}-propan-2-ol] | < 20 nM |
| CO[C@H]1CN(CC2Cc3cc(F)c(F)cc3C2)CC[C@@H]1n1c(C(C)C)nc2cc(C)ccc21 [Example 100, 1-[(3S,4S)-1-(5,6-Difluoro-indan-2-ylmethyl)-3-methoxy-piperidin-4-yl]-2-isopropyl-5-methyl-1H-benzoimidazole] | 20 to 200 nM |
| CO[C@H]1CN(CC2Cc3cc(F)c(F)cc3C2)CC[C@@H]1n1c(C)nc2cc(C)ccc21 [Example 101, 1-[(3S,4S)-1-(5,6-Difluoro-indan-2-ylmethyl)-3-methoxy-piperidin-4-yl]-2,5-dimethyl-1H-benzoimidazole] | 20 to 200 nM |

Source: patent US7803816B2, “MCH receptor antagonists” (Hoffmann-La Roche Inc., priority 2005, dated 2010)
